Legend:
[1] = test system: PLCγ1 nSH2 domain (in tSH2 aa 545–772); test: crystal structure with truncated PLCγ1 tSH2, nSH2 site; assay type: binding; conditions: truncated tSH2 (aa 545–772), resolution 2.1 Å
Method: A shortened version of the PLCγ1 tSH2 domain (aa 545–772) lacking the linker peptide connecting the PLCγ1 cSH2 and SH3 domains (see Results section) was cloned into a pET28a vector carrying an N-terminal His Tag and a SUMO sequence. Expression was carried out in E. coli and the protein was purified to homogeneity as described above. His-Tag and SUMO were proteolytically removed using SUMO protease (SIGMA) following the manufacturer’s instructions, and the cleaved protein purified on a HisTrap column. Fractions containing cleaved protein were further purified by size exclusion chromatography (SEC) using a Superdex 75 26/600 column (GE Healthcare) equilibrated with 50mM Tris pH7.5, 150mM NaCl and 1mM TCEP buffer. The purified protein in SEC buffer was added to lyophilized phosphorylated 12mer pK15 peptide (DDLpYEEVLFPRN) in a 1:8 molar ratio (Protein: peptide) at a final concentration of 3mg/ml of peptide and 7.5mg/ml protein. Crystals were grown at 293 K using the sitting-drop vapor diffusion method in drops containing 1μl protein solution mixed with 1 μL reservoir solution containing 30% PEG 4000, 0.1M TrisHCl pH 8.5 and 0.2M sodium acetate. The crystals were flash frozen in the mother liquor containing 30% ethylene glycol and diffraction data were collected at P13 at DESY-Hamburg. Data were processed, scaled and reduced with XDS [75], Pointless and programs from the CCP4 suite. […]

[2] = test system: PLCγ1 (transfected and endogenous, HEK-293T lysates); test: GST-pulldown, full length PLCγ1; assay type: binding; conditions: in vitro phosphorylated by Src; transfected and endogenous PLCγ1, HEK 293 lysates; Western blot
Method: Fig 2 K15 phosphorylation results in a stronger binding to PLCγ1. (A) An expression plasmid for an S-tagged full length PLCγ1 or the empty vector (EV) were transfected in HEK-293T cells. After 30h cells were lysed and a GST-pulldown assay was performed with GST-fused pK15 CT (WT), the pK15 CT Y^481F mutant (Y^481F) or GST that had been bound to glutathione beads and previously phosphorylated by GST-6xHis Src (+) or left unphosphorylated (-). Bound proteins were analysed by WB using antibodies to the S tag on PLCγ1 and pTyr. (B) Untransfected HEK-293T cells were lysed and a GST-pulldown assay with pre-phosphorylated (+) or unphosphorylated (-) GST-fused pK15 CT WT/Y^481F or GST was performed and analysed by WB as in (A). (C) An expression plasmid for an S-tagged PLCγ1 SA or the empty vector were transfected in HEK-293T cells. […]
HEK293T cells were washed once with cold PBS 30 hours after transfection, lysed in IP buffer (50 mM Tris pH7.6, 60 mM NaCl, 6.25 mM EDTA, 1% (v/v) glycerol, 0.04% (v/v) NP-40) on ice for 30 minutes, sonicated shortly and cleared by centrifugation for 10 minutes at 20.000g, 4°C. […] Beads were then washed 5 times in 500 μl IP buffer (or for purified proteins IP buffer with 200 mM NaCl), suspended in 10 μl of 5x Laemmli sample buffer (60 mM Tris pH6.8, 24% (v/v) glycerol, 2% (v/v) SDS, 5% (v/v) β-mercaptoethanol, 0.01% Bromphenol Blue) and analysed by western blot.

Molecule | binding site occupancy in crystal structure [1] | interaction with PLCγ1 (GST-pulldown) [2]
DDLpYEEVLFPRN [pK15 12mer, phosphorylated peptide representing the last 12 amino acids of pK15 CT (DDLp…)] | at lower occupancy peptide binding to the nSH2 domain was also observed | 
pK15 CT^WT: pK15 cytoplasmic tail fused to GST at its N-terminal end, phosphorylated in vitro by Src (protein, tyrosine-phosphorylated in vitro by Src; sites not stated for this construct; left off: GST, N-terminal, kept) SQLLNEVELQEVNRDPPNVFGYASILVSGAEESREPSPQPDQSGMSILRVDGGSAFRIDTAQAATQPTDDLYEEVLFPRN |  | substantial increase in its interaction with PLCγ1

Source: publication PMC8244865, “Recruitment of phospholipase Cγ1 to the non-structural membrane protein pK15 of Kaposi Sarcoma-associated herpesvirus promotes its Src-dependent phosphorylation” (PLoS Pathogens, 2021)
